This is an account of results in ChEMBL document CHEMBL5653631, “A Potent and Selective ULK1 Inhibitor Suppresses Autophagy and Sensitizes Cancer Cells to Nutrient Stress” (iScience, 2018).

Test [1] concerns the target T1, Serine/threonine-protein kinase BRSK1 (Homo sapiens) (UniProt Q8TDC3).
T1 sequence (whole entry): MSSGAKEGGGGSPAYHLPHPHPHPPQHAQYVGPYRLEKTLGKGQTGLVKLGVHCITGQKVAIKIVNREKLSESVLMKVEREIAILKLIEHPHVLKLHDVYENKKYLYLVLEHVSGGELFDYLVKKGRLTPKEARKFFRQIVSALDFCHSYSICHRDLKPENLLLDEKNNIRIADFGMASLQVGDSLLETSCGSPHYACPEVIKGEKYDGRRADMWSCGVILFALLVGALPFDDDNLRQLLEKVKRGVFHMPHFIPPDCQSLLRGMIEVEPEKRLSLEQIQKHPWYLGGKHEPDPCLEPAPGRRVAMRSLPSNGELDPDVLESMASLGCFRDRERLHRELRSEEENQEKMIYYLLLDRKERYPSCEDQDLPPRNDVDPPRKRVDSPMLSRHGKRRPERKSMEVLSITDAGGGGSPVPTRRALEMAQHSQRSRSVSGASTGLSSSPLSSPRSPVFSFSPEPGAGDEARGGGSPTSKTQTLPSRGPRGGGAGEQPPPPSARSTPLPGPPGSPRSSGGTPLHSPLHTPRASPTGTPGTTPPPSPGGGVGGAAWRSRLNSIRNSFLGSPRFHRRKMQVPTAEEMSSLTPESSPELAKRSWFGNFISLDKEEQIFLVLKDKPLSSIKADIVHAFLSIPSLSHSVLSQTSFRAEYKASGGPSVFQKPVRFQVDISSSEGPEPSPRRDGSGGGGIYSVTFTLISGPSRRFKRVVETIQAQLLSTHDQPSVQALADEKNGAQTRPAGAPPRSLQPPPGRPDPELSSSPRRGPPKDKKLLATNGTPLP
The test can be described thus: Inhibition of human recombinant BRSK1 at 40 nM related to control ULK1.

In test [2] the target is Mitogen-activated protein kinase kinase kinase kinase 4 (Homo sapiens) (UniProt O95819). The test can be described thus: Inhibition of human recombinant HGK at 40 nM related to control ULK1.
The target in test [3] is Homeodomain-interacting protein kinase 1 (Homo sapiens) (UniProt Q86Z02). The test can be described thus: Inhibition of human recombinant HIPK1 at 40 nM related to control ULK1.
Test [4] has as its target Fibroblast growth factor receptor 2 (Homo sapiens) (UniProt P21802). The test can be described thus: Inhibition of human recombinant FGFR2 at 500 nM related to control ULK1.
Test [5] addresses Mitogen-activated protein kinase kinase kinase kinase 4 (Homo sapiens) (UniProt O95819). The test can be described thus: Inhibition of human recombinant HGK at 500 nM related to control ULK1.
Test [6] addresses G protein-coupled receptor kinase 5 (Homo sapiens) (UniProt P34947). In words: Inhibition of human recombinant GPRK5 at 500 nM related to control ULK1.
The target of test [7] is T2, Tribbles homolog 2 (Homo sapiens) (UniProt Q92519).
T2 sequence (whole entry): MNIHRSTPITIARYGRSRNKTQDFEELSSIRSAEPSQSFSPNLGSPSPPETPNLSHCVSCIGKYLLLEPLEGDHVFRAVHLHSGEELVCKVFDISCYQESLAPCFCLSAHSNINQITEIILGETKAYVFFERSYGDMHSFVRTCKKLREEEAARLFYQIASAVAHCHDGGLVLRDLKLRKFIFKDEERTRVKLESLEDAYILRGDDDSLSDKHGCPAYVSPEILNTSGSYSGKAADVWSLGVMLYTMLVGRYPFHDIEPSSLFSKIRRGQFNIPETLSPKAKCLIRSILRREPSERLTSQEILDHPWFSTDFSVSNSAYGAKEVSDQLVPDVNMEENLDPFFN
The test can be described thus: Inhibition of human recombinant Trb2 at 500 nM related to control ULK1.

Test [8] has as its target Serine/threonine-protein kinase PAK 2 (Homo sapiens) (UniProt Q13177). In words: Inhibition of human recombinant PAK2 at 500 nM related to control ULK1.
Test [9] deals with T3, cGMP-dependent protein kinase 2 (Homo sapiens) (UniProt Q13237).
T3 sequence (whole entry): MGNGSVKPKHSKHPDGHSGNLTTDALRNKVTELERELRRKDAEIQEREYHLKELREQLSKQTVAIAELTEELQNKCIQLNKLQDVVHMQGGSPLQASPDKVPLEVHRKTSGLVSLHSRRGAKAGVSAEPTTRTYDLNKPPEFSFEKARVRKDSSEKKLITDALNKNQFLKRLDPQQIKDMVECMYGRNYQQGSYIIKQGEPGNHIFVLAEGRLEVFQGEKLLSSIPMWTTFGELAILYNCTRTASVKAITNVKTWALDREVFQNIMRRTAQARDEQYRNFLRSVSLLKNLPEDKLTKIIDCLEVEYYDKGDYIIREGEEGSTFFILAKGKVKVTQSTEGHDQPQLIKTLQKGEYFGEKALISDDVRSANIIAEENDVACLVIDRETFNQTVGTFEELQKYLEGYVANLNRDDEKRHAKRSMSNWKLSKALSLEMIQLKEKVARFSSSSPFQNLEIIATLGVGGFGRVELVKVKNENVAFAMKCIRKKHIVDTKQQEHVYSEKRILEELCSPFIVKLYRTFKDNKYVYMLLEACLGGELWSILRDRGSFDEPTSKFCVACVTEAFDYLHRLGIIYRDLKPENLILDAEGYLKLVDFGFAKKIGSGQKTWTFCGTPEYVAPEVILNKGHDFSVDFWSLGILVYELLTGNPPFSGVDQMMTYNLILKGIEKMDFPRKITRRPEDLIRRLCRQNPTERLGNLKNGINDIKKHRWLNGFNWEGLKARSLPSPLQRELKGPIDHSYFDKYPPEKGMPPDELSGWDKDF
The test can be described thus: Inhibition of human recombinant PKG2 at 15 nM related to control ULK1.

Chain of Mitogen-activated protein kinase kinase kinase kinase 4 (Homo sapiens) (O95819 2-1239 limits assumed): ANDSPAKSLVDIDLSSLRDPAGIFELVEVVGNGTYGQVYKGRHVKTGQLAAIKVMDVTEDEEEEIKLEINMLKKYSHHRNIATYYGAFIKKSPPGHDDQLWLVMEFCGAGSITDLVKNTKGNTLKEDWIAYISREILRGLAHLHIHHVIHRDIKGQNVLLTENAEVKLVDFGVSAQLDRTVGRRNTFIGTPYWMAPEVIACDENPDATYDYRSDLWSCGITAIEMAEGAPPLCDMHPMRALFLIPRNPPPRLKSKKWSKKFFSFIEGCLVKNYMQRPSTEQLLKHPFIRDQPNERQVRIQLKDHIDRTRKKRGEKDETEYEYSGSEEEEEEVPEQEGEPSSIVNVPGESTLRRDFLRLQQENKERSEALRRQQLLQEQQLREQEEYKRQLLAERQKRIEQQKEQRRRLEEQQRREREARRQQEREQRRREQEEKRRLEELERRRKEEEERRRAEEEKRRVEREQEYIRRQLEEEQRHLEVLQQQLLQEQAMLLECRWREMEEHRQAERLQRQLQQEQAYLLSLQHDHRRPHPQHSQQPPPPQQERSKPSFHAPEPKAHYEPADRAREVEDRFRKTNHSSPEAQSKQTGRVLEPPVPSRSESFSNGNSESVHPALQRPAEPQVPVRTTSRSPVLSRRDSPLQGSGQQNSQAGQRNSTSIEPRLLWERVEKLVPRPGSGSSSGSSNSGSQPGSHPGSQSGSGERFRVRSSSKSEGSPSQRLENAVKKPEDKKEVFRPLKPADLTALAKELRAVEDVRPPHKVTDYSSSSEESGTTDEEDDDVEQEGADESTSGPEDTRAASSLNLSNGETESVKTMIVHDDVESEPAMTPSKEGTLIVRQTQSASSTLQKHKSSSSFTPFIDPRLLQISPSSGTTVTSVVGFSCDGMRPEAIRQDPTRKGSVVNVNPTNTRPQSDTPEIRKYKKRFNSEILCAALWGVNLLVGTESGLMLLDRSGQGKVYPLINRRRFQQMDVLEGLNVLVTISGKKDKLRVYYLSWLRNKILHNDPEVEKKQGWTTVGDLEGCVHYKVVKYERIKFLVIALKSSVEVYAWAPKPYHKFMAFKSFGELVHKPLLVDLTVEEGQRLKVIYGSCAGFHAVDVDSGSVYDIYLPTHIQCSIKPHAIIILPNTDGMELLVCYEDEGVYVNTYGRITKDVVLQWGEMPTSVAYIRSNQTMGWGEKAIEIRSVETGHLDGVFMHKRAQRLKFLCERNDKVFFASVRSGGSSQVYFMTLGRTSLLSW
Chain of Serine/threonine-protein kinase PAK 2 (Homo sapiens) (Q13177 whole entry): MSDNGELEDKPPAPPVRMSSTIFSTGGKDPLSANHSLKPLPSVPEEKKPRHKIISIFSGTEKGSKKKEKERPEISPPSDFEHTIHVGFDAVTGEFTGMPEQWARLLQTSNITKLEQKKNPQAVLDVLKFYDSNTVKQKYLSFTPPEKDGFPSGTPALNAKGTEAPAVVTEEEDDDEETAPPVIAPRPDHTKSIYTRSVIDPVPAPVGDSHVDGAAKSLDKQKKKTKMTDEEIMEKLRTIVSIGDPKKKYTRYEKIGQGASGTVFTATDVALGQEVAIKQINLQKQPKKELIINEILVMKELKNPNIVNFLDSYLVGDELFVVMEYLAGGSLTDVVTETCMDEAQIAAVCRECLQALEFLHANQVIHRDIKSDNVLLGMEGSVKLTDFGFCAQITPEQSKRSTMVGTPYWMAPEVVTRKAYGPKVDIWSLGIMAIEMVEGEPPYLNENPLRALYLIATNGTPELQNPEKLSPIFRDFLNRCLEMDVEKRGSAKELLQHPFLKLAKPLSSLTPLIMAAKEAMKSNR
Chain of Homeodomain-interacting protein kinase 1 (Homo sapiens) (Q86Z02 whole entry, looked up): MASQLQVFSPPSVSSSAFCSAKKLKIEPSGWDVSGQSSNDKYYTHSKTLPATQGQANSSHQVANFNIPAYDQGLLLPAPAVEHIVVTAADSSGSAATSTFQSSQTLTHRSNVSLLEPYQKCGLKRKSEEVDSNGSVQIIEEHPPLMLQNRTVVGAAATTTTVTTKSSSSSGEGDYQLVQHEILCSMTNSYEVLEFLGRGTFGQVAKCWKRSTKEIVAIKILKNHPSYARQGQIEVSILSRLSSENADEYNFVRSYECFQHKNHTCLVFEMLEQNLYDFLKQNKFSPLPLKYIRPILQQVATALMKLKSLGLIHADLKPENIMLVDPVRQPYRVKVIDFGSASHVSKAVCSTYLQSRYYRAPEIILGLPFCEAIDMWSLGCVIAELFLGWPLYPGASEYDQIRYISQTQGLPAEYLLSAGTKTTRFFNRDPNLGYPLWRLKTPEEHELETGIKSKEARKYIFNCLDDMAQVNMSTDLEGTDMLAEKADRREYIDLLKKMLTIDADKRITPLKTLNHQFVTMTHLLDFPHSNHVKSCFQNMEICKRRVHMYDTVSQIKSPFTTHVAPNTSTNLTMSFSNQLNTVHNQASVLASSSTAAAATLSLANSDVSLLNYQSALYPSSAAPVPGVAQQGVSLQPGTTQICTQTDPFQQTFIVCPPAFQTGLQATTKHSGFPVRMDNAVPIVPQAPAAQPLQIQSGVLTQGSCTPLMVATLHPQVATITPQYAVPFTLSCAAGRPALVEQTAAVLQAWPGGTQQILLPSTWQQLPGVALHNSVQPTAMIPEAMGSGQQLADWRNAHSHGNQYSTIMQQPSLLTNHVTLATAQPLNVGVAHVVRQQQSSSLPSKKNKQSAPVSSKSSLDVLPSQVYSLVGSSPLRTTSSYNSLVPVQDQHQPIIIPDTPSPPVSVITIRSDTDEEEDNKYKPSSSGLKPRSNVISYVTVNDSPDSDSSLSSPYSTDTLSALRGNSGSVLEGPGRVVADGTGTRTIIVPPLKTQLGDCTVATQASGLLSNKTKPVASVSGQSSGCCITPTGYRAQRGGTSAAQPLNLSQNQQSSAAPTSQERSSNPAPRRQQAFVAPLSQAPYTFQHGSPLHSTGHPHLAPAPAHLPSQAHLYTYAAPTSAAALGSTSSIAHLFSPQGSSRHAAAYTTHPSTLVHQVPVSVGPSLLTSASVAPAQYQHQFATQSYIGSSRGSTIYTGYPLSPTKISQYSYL
Chain of G protein-coupled receptor kinase 5 (Homo sapiens) (P34947 whole entry, looked up): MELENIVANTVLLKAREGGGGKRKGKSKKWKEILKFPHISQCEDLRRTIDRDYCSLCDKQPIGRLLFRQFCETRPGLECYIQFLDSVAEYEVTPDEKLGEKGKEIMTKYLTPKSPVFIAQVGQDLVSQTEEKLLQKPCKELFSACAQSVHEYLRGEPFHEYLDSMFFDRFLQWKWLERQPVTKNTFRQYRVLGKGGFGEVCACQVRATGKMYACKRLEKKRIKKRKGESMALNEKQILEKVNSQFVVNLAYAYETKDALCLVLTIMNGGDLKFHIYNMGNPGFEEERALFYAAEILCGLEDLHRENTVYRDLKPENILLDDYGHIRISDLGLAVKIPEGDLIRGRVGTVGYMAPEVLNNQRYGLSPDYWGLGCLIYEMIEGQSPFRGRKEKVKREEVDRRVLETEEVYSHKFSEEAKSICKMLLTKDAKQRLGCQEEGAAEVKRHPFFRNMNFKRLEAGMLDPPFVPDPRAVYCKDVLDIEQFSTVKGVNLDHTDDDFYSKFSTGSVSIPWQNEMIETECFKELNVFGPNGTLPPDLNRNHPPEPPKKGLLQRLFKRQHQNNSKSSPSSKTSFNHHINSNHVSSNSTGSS
Chain of Fibroblast growth factor receptor 2 (Homo sapiens) (P21802 22-821 limits assumed): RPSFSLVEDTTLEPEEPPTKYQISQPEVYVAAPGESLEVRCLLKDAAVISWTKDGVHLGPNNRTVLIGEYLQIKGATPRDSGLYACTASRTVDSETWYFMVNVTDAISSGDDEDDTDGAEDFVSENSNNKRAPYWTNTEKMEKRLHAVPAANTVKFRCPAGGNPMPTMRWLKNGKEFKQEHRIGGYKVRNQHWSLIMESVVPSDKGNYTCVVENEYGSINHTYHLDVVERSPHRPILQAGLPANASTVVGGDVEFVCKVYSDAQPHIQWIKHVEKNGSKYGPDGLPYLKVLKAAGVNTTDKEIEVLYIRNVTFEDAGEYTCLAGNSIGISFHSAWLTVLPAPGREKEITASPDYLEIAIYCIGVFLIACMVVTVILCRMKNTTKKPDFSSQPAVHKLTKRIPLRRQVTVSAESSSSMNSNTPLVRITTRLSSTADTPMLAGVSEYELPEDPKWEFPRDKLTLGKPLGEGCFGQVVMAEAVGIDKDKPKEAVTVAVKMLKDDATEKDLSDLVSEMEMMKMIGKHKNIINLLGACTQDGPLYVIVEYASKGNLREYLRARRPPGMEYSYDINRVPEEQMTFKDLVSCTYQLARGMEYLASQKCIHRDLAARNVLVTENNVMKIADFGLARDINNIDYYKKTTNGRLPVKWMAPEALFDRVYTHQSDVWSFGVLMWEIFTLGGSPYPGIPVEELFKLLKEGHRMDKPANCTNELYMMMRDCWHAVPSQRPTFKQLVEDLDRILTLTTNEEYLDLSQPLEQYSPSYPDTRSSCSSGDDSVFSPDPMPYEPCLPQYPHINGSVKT

For the compound `O=C(N[C@@H](C1CC1)C(F)(F)F)c1cc(-c2cnn3cc(-c4ccc(F)cc4)cnc23)cs1`, the fold change (FC) in [1] is 0.03; in test [2], 0; in test [3], 0.
Consider `CNC(=O)c1ccccc1Oc1nc(Nc2cc(OC)c(OC)c(OC)c2)ncc1Br`, for which the fold change (FC) in [4] was determined as 0.28; in test [5] it was 0; in [6] it was 0.01; in test [7] it was 0; in [8], 0.19.
Regarding `CC(C)[C@H](NC(=O)c1cc(-c2cnn3cc(-c4ccc(OCCN5CCCCC5)cc4)cnc23)cs1)C(F)(F)F`, the fold change (FC) in [9] stood at 0.05.
